Data as given in patent US20040023295A1, “Methods and systems for analyzing complex biological systems” (priority 2001, published 2004).
“Also recorded” adds a separate entry of the source.

Legend:
Arabidopsis thaliana [1] = test: Phenotypic profiling of Arabidopsis sprayed with unknown and commercial herbicides (MOA1); format: in vivo; conditions: Ward's method
[2] = tested on: Arabidopsis thaliana plants; test: Phenotypic analysis of herbicide-treated Arabidopsis plants (SOA1); format: in vivo; conditions: for characteristic symptoms (morphological phenotype): herbicide-treated Arabidopsis; for Dev. leafWidth: numeric values standardized to the average response for the mock treated tissues; for Dev. leafCurling / Dev. leafTwisting / Dev. matureLeafAnthocyanins / Dev. matureLeafChlorosis / Dev. matureLeafNecrosis / Dev. newLeafAnthocyanins / Dev. newLeafChlorosis / Dev. newLeafNecrosis / Dev. pointedLeaves: standardized to mock treated; for Symptom Class: three-week-old Arabidopsis sprayed with herbicide, phenotype classes of FIG. 12; for Dev. tMic: time for full range of symptoms at MIC, coded score
Arabidopsis thaliana [3] = test: Gene expression profiling of sprayed Arabidopsis (MOA1); format: in vivo; conditions: for No. of Lethal Genes Altered: regulated genes identified as essential genes in internal database
Arabidopsis thaliana [4] = test: Biochemical (metabolite) profiling by LC-MS and GC-MS of sprayed Arabidopsis (MOA1); conditions: for stress related (commonly regulated) metabolites: within one hour after spraying
Magnaporthe grisea = format: cell-based
[5] = 1 hr, p < 0.5, arrays containing 22,000 Arabidopsis genes
[6] = early time points (20 min, 1 hour)

Q: `Nc1nc[nH]n1` [Amitrole] was tested. Which “phenotype / hierarchical clustering of the eleven phenotypic characteristics” value (Arabidopsis thaliana [1]) did it give?
A: exhibited chlorosis and not true bleaching

Q: What about the “characteristic symptoms (morphological phenotype)” value [2] of the same molecule?
A: leaf bleaching and leaf enlargement

Q: For `COC(=O)NS(=O)(=O)c1ccc(N)cc1` [Asulam], which “No. of Lethal Genes Altered” value (Arabidopsis thaliana [3]) is on record?
A: 5

Q: For `CCSC(=O)N(CC(C)C)CC(C)C` [Butylate], which “stress related (commonly regulated) metabolites” value (from here on “stress related”) (Arabidopsis thaliana [4]) is on record?
A: neither butylate nor chlorpropham treatment resulted in many changes

Q: What about the “phenotype / hierarchical clustering of the eleven phenotypic characteristics” value (Arabidopsis thaliana [1]) of the same molecule?
A: neither showed a strong herbicidal phenotype

Q: Which results are given for `CC(C)OC(=O)Nc1cccc(Cl)c1` [Chloropropham]?
A: stress related (commonly regulated) metabolites (Arabidopsis thaliana [4]): neither butylate nor chlorpropham treatment resulted in many changes; phenotype / hierarchical clustering of the eleven phenotypic characteristics (Arabidopsis thaliana [1]): neither showed a strong herbicidal phenotype

Q: Which “No. of Lethal Genes Altered” value (Arabidopsis thaliana [3]) does the source give for `COc1nc(C)nc(NC(=O)NS(=O)(=O)c2ccccc2Cl)n1` [Chlorsulfuron] here?
A: 8

Q: And the “characteristic symptoms (morphological phenotype)” value [2]?
A: anthocyanin accumulation in the older leaves accompanied by chlorosis of the newly emerging leaves

Q: `CP(=O)(O)CCC(N)C(=O)O` (centres unmarked) [Glufosinate] was tested. Which “stress related” value (Arabidopsis thaliana [4]) did it give?
A: Only a few, if any

Q: What about the “Regulated Genes: Down” value (Arabidopsis thaliana [3]; [5]) of the same molecule?
A: 54

Q: What about the “No. of Lethal Genes Altered” value (Arabidopsis thaliana [3]) of the same molecule?
A: 10

Q: And the “characteristic symptoms (morphological phenotype)” value [2]?
A: Chlorosis and leaf curling

Q: And the “Dev. leafWidth” value [2]?
A: −2

Q: And the “Dev. leafCurling” value [2]?
A: 2

Q: What about the “Dev. leafTwisting” value [2] of the same molecule?
A: 1

Q: What about the “Dev. matureLeafAnthocyanins” value [2] of the same molecule?
A: 0

Q: And the “Dev. matureLeafChlorosis” value [2]?
A: 3

Q: And the “Dev. matureLeafNecrosis” value [2]?
A: 0

Q: And the “Dev. newLeafAnthocyanins” value [2]?
A: 0

Q: And the “Dev. newLeafChlorosis” value [2]?
A: 3

Q: What about the “Dev. newLeafNecrosis” value [2] of the same molecule?
A: 0

Q: What about the “Dev. pointedLeaves” value [2] of the same molecule?
A: 1

Q: And the “Symptom Class” value [2]?
A: 3

Q: What about the “Dev. tMic” value [2] of the same molecule?
A: 1

Q: `O=C(O)CNCP(=O)(O)O` [Glyphosate] was tested. Which “tyrosine level relative to the control” value (Arabidopsis thaliana [4]; [6]) did it give?
A: decreased relative to the control

Q: And the “growth of M. grisea with ammonium or glutamine as nitrogen source” value (Magnaporthe grisea; 250 μg/ml)?
A: Little growth defect

Q: And the “growth of M. grisea with nitrate or glutamate as nitrogen source” value (Magnaporthe grisea; 250 μg/ml)?
A: inhibited growth

Q: What about the “growth of M. grisea with nitrite as the sole nitrogen source” value (Magnaporthe grisea; 250 μg/ml) of the same molecule?
A: inhibited growth

Q: What about the “growth results for Tiers 3 and 4 as compared to Unknown 4” value (Magnaporthe grisea; 250 μg/ml) of the same molecule?
A: nearly identical

Q: What about the “growth inhibition of M. grisea and its remediation” value (Magnaporthe grisea; 1.0 mg/ml) of the same molecule?
A: remediated by inclusion of aromatic amino acids

Q: What about the “characteristic symptoms (morphological phenotype)” value [2] of the same molecule?
A: anthocyanin accumulation in the older leaves accompanied by chlorosis of the newly emerging leaves

Q: What about the “Dev. leafWidth” value [2] of the same molecule?
A: 0

Q: And the “Dev. leafCurling” value [2]?
A: 0

Q: What about the “Dev. leafTwisting” value [2] of the same molecule?
A: 0

Q: What about the “Dev. matureLeafAnthocyanins” value [2] of the same molecule?
A: 3

Q: And the “Dev. matureLeafChlorosis” value [2]?
A: 1

Q: And the “Dev. matureLeafNecrosis” value [2]?
A: 3

Q: And the “Dev. newLeafAnthocyanins” value [2]?
A: 1

Q: And the “Dev. newLeafChlorosis” value [2]?
A: 2

Q: And the “Dev. newLeafNecrosis” value [2]?
A: 0

Q: What about the “Dev. pointedLeaves” value [2] of the same molecule?
A: 1

Q: And the “Symptom Class” value [2]?
A: 4

Q: And the “Dev. tMic” value [2]?
A: 2

Q: What does the source list for `CC(C)C1(C)N=C(c2ncccc2C(=O)O)NC1=O` (centres unmarked) [Imazapyr]?
A: stress related (commonly regulated) metabolites (Arabidopsis thaliana [4]): Only a few, if any; characteristic symptoms (morphological phenotype) [2]: anthocyanin accumulation in the older leaves accompanied by chlorosis of the newly emerging leaves

Q: With `CS(=O)(=O)c1cc(C(F)(F)F)ccc1C(=O)c1cnoc1C1CC1` [Isoxaflutole] as the molecule, how does the “Alpha-tocopherol level relative to the control” value (Arabidopsis thaliana [4]; early time points) read?
A: not significantly changed

Q: And the “phenylalanine level relative to the control” value (Arabidopsis thaliana [4]; [6])?
A: up-regulated; also recorded: began to accumulate relative to the control

Q: What about the “tyrosine level relative to the control” value (Arabidopsis thaliana [4]; [6]) of the same molecule?
A: up-regulated; also recorded: began to accumulate relative to the control

Q: And the “alterations in the expression of genes involved in the homogentisate biosynthetic pathway” value (Arabidopsis thaliana [3]; MOA1, 1 hr)?
A: not observed

Q: What about the “No. of Lethal Genes Altered” value (Arabidopsis thaliana [3]) of the same molecule?
A: 15

Q: For `CSc1nnc(C(C)(C)C)c(=O)n1N` [Metribuzin], which “characteristic symptoms (morphological phenotype)” value [2] is on record?
A: rapid and widespread leaf necrosis

Q: How did the “Regulated Genes: Down” value (Arabidopsis thaliana [3]; [5]) turn out when `O=C(O)c1ccccc1C(=O)Nc1cccc2ccccc12` [Naptalam] was run?
A: 47

Q: What about the “Regulated Genes: Up” value (Arabidopsis thaliana [3]; [5]) of the same molecule?
A: 50

Q: What about the “No. of Lethal Genes Altered” value (Arabidopsis thaliana [3]) of the same molecule?
A: 3

Q: For `CNc1cnn(-c2cccc(C(F)(F)F)c2)c(=O)c1Cl` [Norflurazon], which “stress related” value (Arabidopsis thaliana [4]) is on record?
A: Only a few, if any

Q: Which results are given for `C[n+]1ccc(-c2cc[n+](C)cc2)cc1` [Paraquat]?
A: characteristic symptoms (morphological phenotype) [2]: rapid and widespread leaf necrosis; Dev. leafWidth [2]: −1; Dev. leafCurling [2]: 2; Dev. leafTwisting [2]: 0; Dev. matureLeafAnthocyanins [2]: 0; Dev. matureLeafChlorosis [2]: 1; Dev. matureLeafNecrosis [2]: 4; Dev. newLeafAnthocyanins [2]: 0; Dev. newLeafChlorosis [2]: 1; Dev. newLeafNecrosis [2]: 4; Dev. pointedLeaves [2]: 1; Dev. tMic [2]: 2
